Test results: patent US8865672B2, “Prevention of tissue ischemia and related methods” (The United States of America, as represented by the …, priority 2006, dated 2014)
Blank lines part the entries; values can stand above or below the molecule they belong to. Ends that are not written are not given here. * marks the point of attachment. Biotin = O=C1N[C@H]2[C@H](CS[C@H]2CCCCC(=O)*)N1

How the values were obtained:
[1] = test system: random myocutaneous flaps in mice; experiment: Random myocutaneous (McFarlane) flap model; assay type: in vivo, mouse; settings: aged TSP1-null animals, agent in drinking water
Experimental: WT and TSP1 null mice were matched for sex and age. Under isoflurane inhalation anesthesia 1×2 cm random myocutaneous flaps were raised. Where indicated, animals received either L-NAME (0.5 mg/ml) or ISDN (1 mg/ml) ad libitum in drinking water during the post-operative period. On postoperative day 7, the animals were again anesthetized with inhalation isoflurane and flaps evaluated. Viable and necrotic areas of the flaps were determined by color, refill, eschar, and the pin-prick test. Outlines of viable and nonviable areas were traced using transparent film and the area of flap necrosis versus total flap area determined as described (Yu et al., Proc Natl Acad Sci USA 102:10999-11004, 2005).
Wild type, TSP1 null, CD36 null and CD47 null mice were matched for sex and age underwent random dorsal myocutaneous flaps as described (Isenberg et al., Blood 2006; Example 2) and tissue harvested on postoperative day 7.
The necrotic area of the flap was determined as described (Isenberg et al., Blood. Nov. 2, 2006) Animals were then euthanized and flaps excised, fixed in 10% paraformaldehyde and processed for histology.
Random myocutaneous flap wound beds and/or ischemic hindlimb vastus medialis muscle was assessed at indicated time points (72 hours or 7 days post-operatively) for visible alterations in vascularity under 5× magnification. An arbitrary though strictly applied definition of countable vessels was employed to highlight both individual vessels and vascular ramifications. In any given vascular plexus visible by 5× magnification a vessel was defined as that segment traversing two branches. Visible vessels without ramifications and branches were counted once. Treatment status and genetic background of tissue images was not known by the reviewer.
Animals underwent creation of a random myocutaneous (McFarlane) flap as previously described (Isenberg et al., Blood 109:1945-1952, 2007). Some animals received either ISDN (1 mg/mL) or L-NAME (0.5 mg/ml) ad libitum in the drinking water during the post-operative interval.
Flap soft tissue units and underling wound beds were injected with control vehicle (normal saline), a CD47 morpholino or a control morpholino (10 μM) in sterile saline. Flap survival was determined as described.

[2] = test system: full thickness skin grafts in mice; experiment: Full thickness skin graft (FTSG) model; assay type: in vivo, mouse; settings: TSP1-null grafts, agent in drinking water post-operatively
Experimental: Wild type, TSP1 null, CD47 null and CD36 null mice were matched for sex and age. Anesthesia was induced by and maintained with inhalation isoflurane. Body temperature was maintained at 37° C. with a heating pad during the procedure. The dorsal surface was clipped of hair and depilated with Nair®. The skin was then cleansed with surgical soap and alcohol and the animals draped. Using sterile technique, a 1×1 cm FTSG incorporating the panniculus carnosus, subcutaneous tissues and skin were raised. Graft dimensions were marked on the animal skin surface with the aid of a template to insure consistency in dimension. Grafts were in the midline of the animal and secured with four interrupted 5-0 nylon sutures. Sutures were so placed as to include the fascia of the dorsal musculature to provide increased immobilization of grafts to the underlying wound bed Animals were awakened and returned to individual cages and allowed ad libitum access to food and water. Trauma to FTSG was not encountered during the post-operative interval since grafts were located in the dorsal midline over the mid thoracic area and each animal was housed individually following surgery. On postoperative day three or seven, the animals were again anesthetized with inhalation isoflurane and skin graft survival evaluated.
The groups of animals utilized and the treatments received as indicated either at the time of skin grafting and/or during the post-operative interval are summarized in FIG. 21. Animals treated with ISDN (1 mg/ml) or L-NAME (0.5 mg/ml) had ad libitum access to drinking water containing the given concentrations of agents during the post-operative interval. Animals treated with a CD47 monoclonal antibody (Ab clone 301) or an isotype matched control antibody (Ig2α) underwent injection of 40 μg delivered as 10 μl of a 4 mg/ml stock in 100 μl of PBS with equal volumes injected between the wound bed and graft prior to suturing the graft in place. Animals treated with a CD47 morpholino oligonucleotide underwent injection of the FTSG and wound bed with 10 μmol/L in 250 μl of PBS with 125 μl volumes injected in the graft and wound bed, respectively prior to suturing the graft in place.
The necrotic areas of the FTSG were determined by color, refill, eschar, and the pin-prick test. The outlines of viable and nonviable areas were traced using transparent film, and the area of necrosis cut from the template and the area of skin graft necrosis versus total skin graft area determined by comparison of the original template weight to the weight of the cut template utilizing the method described by Ueda (Ueda et al., J Surg Res 80(2):200-204, 1998). Skin graft survival area was presented as the ration of graft survival on post-operative day three or seven divided by the original graft area multiplied by 100%. Additionally, digital images were then acquired using an Olympus C5500 digital camera at a fixed distance (20 cm perpendicular to the animal) under standard room lighting with autoflash and macro settings engaged and uploaded for image analysis of tissue survival with a standard software program (Image-Pro Plus, Media Cybernetics, Inc., Silver Spring, Md.). […]
Skin graft wound beds were assessed at indicated time points (72 hours or 7 days post-operatively) for visible alterations in vascularity under 5× magnification. […] Visible vessels without ramifications and branches were counted once. […]

[3] = test system: NO/cGMP signaling; experiment: cGMP signaling (NO-stimulated cGMP, immunoassay); assay type: cell-based, human; settings: concentration for 50% inhibition of effect
Experimental: Vascular cells (endothelial) or HT-1080 cells (10^4 cells/well) grown overnight in 12-well culture in SM-GM containing 2% FCS or RPMI+10% FCS respectively and then weaned off serum over 48 h before treatment with NO donors and other agents in serum/additive free medium+0.1% BSA. Intracellular cGMP levels were determined using an enzyme immunoassay (Amersham, GE Health Care, UK). In other experiments fresh washed human platelets were incubated in Tyrode's buffer and the indicated treatment agents±NO and cGMP determined.

[4] = test system: VSMC and endothelial cells; experiment: NO-stimulated adhesion of VSMC and endothelial cells to type I collagen (Example 9); assay type: cell-based; settings: 10 μM DEA/NO
Experimental: Vascular cells (VSMC or endothelial) were plated at 10,000 cells/well onto 96-well plates (Maxisorb, Nunc) precoated with type I collagen (3 μg/ml). […] Plates were then washed with PBS, fixed with glutaraldehyde, stained with crystal violet, and washed. Absorbed stain was solubilized with acetic acid from fixed cells and the resulting color signal determined on a MR580Microelisa Auto Reader, (Dynatech, Alexandria, Va.) at 450 nm wavelength.

[5] = test system: vascular cell outgrowth from muscle explants; experiment: Explant invasion assay in 3D collagen; assay type: cell-based, mouse; settings: wild type and TSP1 null explants, NO 10 μM, peptides 10 μM, NoC1 0.1 μg/ml, day 7
Experimental: Muscle biopsies from the pectoralis major muscle of 8 to 12 week old wild type or transgenic mice were harvested and explanted into 100 μl of type I collagen gel in 96-well tissue culture plates as described (Isenberg et al., Matrix Biol 24:110-123, 2005). Following gelation, the embedded explants were overlayed with 75 μl of EGM+2% FCS in the presence or absence of a dose range of DETA/NO (0.01-1000 μM) and other indicated treatments and then incubated at 37° C. and 5% CO2 for 7 days, at which time maximum vascular cell migration through the matrix was measured.

[6] = test system: HUVEC; experiment: NO-stimulated HUVEC adhesion on type I collagen; assay type: cell-based, human; settings: DEA/NO 10 μM
Experimental: Cell adhesion was carried out in 96-well culture plates. After pre-coating wells with type I collagen (3 μg/ml in DPBS) harvested cells were plated at a density of 1×10^4 cells/well in medium plus 0.1% BSA and treatment agents and incubated in 5% CO2 for 1 h. Wells were washed with PBS and cells fixed with 1% glutaraldehyde for 10 min., washed and stained with 1% crystal violet for 20 min. Excess stain was rinsed away, adherent cells treated with 10% acetic acid, and plates read at 570 nm.

[7] = test system: murine ASMC (WT, CD36 null, CD47 null); experiment: Intracellular cGMP in murine ASMC; assay type: cell-based, mouse
Experimental: Murine ASMC were obtained from aortic segments harvested sterilely from C57B1/6 CD47 null or CD36 null mice as described (Ray et al., Methods Cell Sci 23:185-188, 2001) and cultured in SM-GM (Cambrex)+20% FCS. In the case of CD36 null cells, culture flasks were pre-coated with 1% gelatin prior to cell plating. Wild type C57B1/6 ASMC cultures were prepared as previously described (Isenberg et al., Matrix Biol 24:110-123, 2005). Cell culture purity was determined by immunohistochemistry staining for α-smooth muscle actin. Cells were used within passage 1 to 4 to minimize overgrowth of other cell types.
HUVEC (10^4 cells/well) grown overnight in 96-well culture plates containing full growth medium with 2% FCS and weaned in growth medium without additives and 1% FCS over 24 hrs before treatment with NO donors and other agents in SM-GM without additives+0.1% BSA. Intracellular cGMP levels were determined according to the manufacturer's instructions using an enzyme immunoassay kit (Amersham Biosciences). In other experiments ASMC from wild type and CD36 or CD47 null mice were plated onto 96-well culture plates and incubated overnight in full growth medium. They were then weaned off serum as described to SM-GM+0.1% BSA and treated with NO donor and other agents as indicated. Intracellular cyclic nucleotides were determined via immunoassay.

[8] = test system: human platelets; experiment: Thrombin-induced human platelet aggregation; assay type: cell-based; settings: high shear
Experimental: Platelets were pelleted from platelet-rich plasma (PRP) by centrifugation for 10 minutes at 200 g. They were then washed with acid citrate dextrose (ACD) (85 mM citric acid, 65 mM sodium citrate, 100 mM glucose, pH 5.1) at a ratio of 1:7 at room temperature. After pelleting the platelets again and removing the supernatant, the platelets were resuspended in 5 mL of Tyrode's buffer (137 mM NaCl, 3 mM KCl, 12 mM NaHCO3, 0.3 mM NaHPO4, 2 mM CaCl2, 1 mM MgCl2, 5.5 mM glucose, 5 mM HEPES, 3.5 mg/mL BSA, pH 7.4). The final platelet number was adjusted to […] in 500 μl/cuvette of Tyrode's buffer.
Aggregation of human platelets under high shear conditions was assessed using a standard optical aggregometer (Lumi-Dual Aggregometer, Chrono-Log Corp., Havertown, Pa.) at 37° C. and 1200 rpm in a volume of 500 μl buffer with a final platelet concentration of 2×10^5 platelets/μl over a 5 minute interval. Pre-incubation with TSP1 and TSP1-based agents was for 15 minutes prior to addition of thrombin and/or the rapidly releasing nitric oxide donor DEA/NO. In some experiments platelets were pre-incubated with the Rap1 inhibitor GGTI-298 (10 μM) (Calbiochem, La Jolla, Calif.) for 30 minutes prior to initiating aggregation. In other high shear aggregation experiments murine platelets were prepared as above with the following modifications. Mouse blood was collected by retro-orbital bleeding of anesthetized mice using heparinized tubes. PRP was prepared and then diluted with 4 vol. of Tyrodes containing 5 mM EDTA to prevent activation. After collection by centrifugation, platelets were resuspended in 2× initial PRP volume and held at room temperature for less than 1 hour before use. Aggregation conditions consisted of 250 μL of washed platelets stirred at 1200 rpm in a Chronolog Optical aggregometer at 37° C. DEA/NO (10 μM) was added 30 seconds prior to activation and 8-BrcGMP added 15 min prior to activation with 0.2 U/ml human thrombin. Data was collected using Chronolog “Aggrolink” software. Platelet aggregation under static conditions was assessed using a spectrophotometer (Beckman DU 640, Beckman Coulter, Fullerton, Calif.) and determined as a change in absorbance at 400 nm with continuous observation over a five minute interval. The cuvette was inverted once every 60 seconds. Pre-incubation with TSP1 and TSP1-based agents was for 15 minutes prior to addition of thrombin and/or DEA/NO to minimize the formation of thrombin-serpinthrombospondin complexes (Chang & Detwiler, Arch Biochem Biophys. 299:100-104, 1992), which interfere with thrombin-platelet interactions.
Fresh human platelets were suspended in Tyrode's buffer and under low shear conditions thrombin-stimulated aggregation measured as described. Platelets were then treated with peptide C6d (1 μM)±NO (10 μM DEA/NO) and thrombin and aggregation measure.

[9] = test system: human platelets; experiment: cGMP in human platelets; assay type: cell-based; settings: washed human platelets in Tyrode's buffer
Experimental: Fresh human platelets at 2×10^5 platelets/μl in Tyrode's buffer or PRP were pre-incubated with the indicated agents for 15 minutes and then challenged with DEA/NO for the indicated time interval at room temperature and total cGMP determined via immunoassay (Amersham, GE Healthcare, Buckinghamshire, UK). Murine WT and TSP1-null platelets were treated with DEA/NO and cGMP flux measured.

Molecule: O=[N+]([O-])O[C@H]1CO[C@H]2[C@@H]1OC[C@H]2O[N+](=O)[O-] [ISDN, Isosorbide dinitrate, reference compound]
flap survival [1]: did not dramatically alter flap survival
FTSG survival [2]: not substantially altered

Molecule: Biotin-IGWKGFTAYR [C6e]
cGMP signaling IC50 [3]: inactive
NO-stimulated adhesion to type I collagen [4]: not blocked

Molecule: FIRVVMYEGKK [7N3]
NO-stimulated vascular cell outgrowth [5]: inhibited vascular cell outgrowth
concentration of maximal inhibition of NO-stimulated endothelial cell adhesion [6]: 10 µM
NO-stimulated endothelial cell adhesion on type I collagen ([6]; 1 h): inhibited NO-stimulated endothelial cell adhesion
NO-stimulated cGMP ([7]; CD36 null MASMC): completely inhibited
NO-stimulated cGMP ([7]; CD47 null MASMC): did not significantly inhibit
concentration sufficient to significantly inhibit the NO delay [8]: 10 nM
NO delay of thrombin-induced platelet aggregation ([8]; thrombin 0.2 U/ml, DEA/NO 10 μM): blocked
NO stimulated cGMP in platelets [9]: partially inhibited

cGMP signaling IC50 [3]: inactive
Molecule: GAKDFTAYR [C6s]
NO-stimulated adhesion to type I collagen [4]: not blocked

Molecule: VTCGGGVQKRSRL [p245]
NO-stimulated vascular cell outgrowth [5]: inhibited vascular cell outgrowth
